Results on 24 compounds are retold here after patent publication US11319298B2 (Merck Sharp & Dohme Corp., priority 2016, dated 2022).

Structures are written as SMILES.

This experiment deals with T1, human M4 muscarinic acetylcholine receptor (Homo sapiens, UniProt P08173).
T1 construct: expressed in transfected cells; host or cells: CHO-K1
T1 sequence (P08173 1-479): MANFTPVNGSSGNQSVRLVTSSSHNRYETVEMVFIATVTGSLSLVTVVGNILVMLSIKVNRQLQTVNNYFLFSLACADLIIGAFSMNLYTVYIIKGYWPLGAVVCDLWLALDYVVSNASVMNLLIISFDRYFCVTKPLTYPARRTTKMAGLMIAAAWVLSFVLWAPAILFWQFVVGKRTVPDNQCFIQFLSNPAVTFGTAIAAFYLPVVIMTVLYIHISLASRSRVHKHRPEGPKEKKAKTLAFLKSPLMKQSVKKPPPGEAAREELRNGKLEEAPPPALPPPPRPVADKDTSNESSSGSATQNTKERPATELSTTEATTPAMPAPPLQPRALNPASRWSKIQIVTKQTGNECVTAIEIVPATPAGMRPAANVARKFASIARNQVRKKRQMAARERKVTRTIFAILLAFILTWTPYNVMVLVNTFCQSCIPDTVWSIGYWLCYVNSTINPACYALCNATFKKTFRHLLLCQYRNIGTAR
Briefly: human FLIPR-based M4 PAM assay, CHO-K1 cells stably transfected with human M4 receptor and chimeric G-protein Gαqi5. Type of experiment: cell-based. The settings on record: inflection point (IP) of dose response curve; acetylcholine added at 20% of maximum response; CHO-K1 human M4/Gαqi5, FLIPR Tetra. Summed up:
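The FLIPR read recorded 4 min after compound was added across a concentration range, then 3.5 min after acetylcholine giving 20% of its maximal response, with an occasional extra EC70 addition. Cells were dye-loaded for about 1 h at 37 °C. Potency is the curve inflection point from a four-parameter logistic fit.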
`C=Cc1ncnc(N2CCC(Oc3ccc(OC)nc3)CC2)c1C` [Example 243, 4-(4-((6-methoxypyridin-3-yl)oxy)piperidin-1-yl)-5-methyl-6-vinylpyrimidine] displayed a concentration for a half-maximal effect (EC50) of 342 nM. For `Cc1c(-c2cccnc2)ncnc1N1CCC(Oc2cccc(C#N)c2)CC1` [Example 244, 3-((1-(5-methyl-6-(pyridin-3-yl)pyrimidin-4-yl)piperidin-4-yl)oxy)benzonitrile], it took 461 nM to reach a half-maximal effect (EC50). In the case of `C=Cc1ncnc(N2CCC(Oc3cccc(C#N)c3)CC2)c1C` [Example 245, 3-((1-(5-methyl-6-vinylpyrimidin-4-yl)piperidin-4-yl)oxy)benzonitrile], the EC50 came to 484 nM. `COc1ccc(OC2CCN(c3ncnc(-c4ccc(F)nc4)c3C)CC2)cn1` [Example 246, 4-(6-fluoropyridin-3-yl)-6-(4-((6-methoxypyridin-3-yl)oxy)piperidin-1-yl)-5-methylpyrimidine] had an EC50 of 633 nM. For `Cc1cncc(-c2ncnc(N3CCC(Oc4cccc(C#N)c4)CC3)c2C)c1` [Example 247, 3-((1-(5-methyl-6-(5-methylpyridin-3-yl)pyrimidin-4-yl)piperidin-4-yl)oxy)benzonitrile] the value was 1130 nM; for `CCCc1ncnc(N2CCC(Oc3ccc(OC)nc3)CC2)c1C` [Example 248, 4-(4-((6-methoxypyridin-3-yl)oxy)piperidin-1-yl)-5-methyl-6-propylpyrimidine], 1550 nM. On to `Cc1c(-c2ccoc2)ncnc1N1CCC(Oc2cccc(C#N)c2)CC1` [Example 249, 3-((1-(6-(furan-3-yl)-5-methylpyrimidin-4-yl)piperidin-4-yl)oxy)benzonitrile], for which the response was half-maximal at 925 nM (EC50). Compared with the last compound, the EC50 is about 1.7-fold lower. The compound `Cc1c(-c2ccc3c(c2)OCCO3)ncnc1N1CCC(Oc2cccc(C#N)c2)CC1` [Example 250, 3-((1-(6-(2,3-dihydrobenzo[b][1,4]dioxin-6-yl)-5-methylpyrimidin-4-yl)piperidin-4-yl)oxy)benzonitrile] showed an EC50 of 1130 nM.

With `COc1ccc(OC2CCN(c3ncnc(-c4cccnc4)c3C)CC2)cn1` [Example 251, 4-(4-((6-methoxypyridin-3-yl)oxy)piperidin-1-yl)-5-methyl-6-(pyridin-3-yl)pyrimidine], it took 1440 nM to reach a half-maximal effect (EC50). Turning to `COc1ccc(OC2CCN(c3ncnc(-c4ccoc4)c3C)CC2)cn1` [Example 252, 4-(furan-3-yl)-6-(4-((6-methoxypyridin-3-yl)oxy)piperidin-1-yl)-5-methylpyrimidine], the EC50 was 1710 nM. In the case of `Cc1c(-c2ccc3c(=O)nc[nH]c3c2)ncnc1N1CCC(Oc2cccc(C#N)c2)CC1` [Example 253, 3-((1-(5-methyl-6-(4-oxo-1,4-dihydroquinazolin-7-yl)pyrimidin-4-yl)piperidin-4-yl)oxy)benzonitrile], the EC50 stood at 1740 nM. For `Cc1c(-c2ccc(F)cc2)ncnc1N1CCC(Oc2cccc(C#N)c2)CC1` [Example 254, 3-((1-(6-(4-fluorophenyl)-5-methylpyrimidin-4-yl)piperidin-4-yl)oxy)benzonitrile], the EC50 amounted to 2470 nM. For `COc1ccc(OC2CCN(c3ncnc(CC(C)C)c3C)CC2)cn1` [Example 255, 4-isobutyl-6-(4-((6-methoxypyridin-3-yl)oxy)piperidin-1-yl)-5-methylpyrimidine] the value was 2520 nM.

The compound `CCCCc1ncnc(N2CCC(Oc3ccc(OC)nc3)CC2)c1C` [Example 256, 4-butyl-6-(4-((6-methoxypyridin-3-yl)oxy)piperidin-1-yl)-5-methylpyrimidine] showed a concentration for a half-maximal effect (EC50) of 2630 nM. The compound `COc1ccc(OC2CCN(c3ncnc(-c4ccc(F)cc4)c3C)CC2)cn1` [Example 257, 4-(4-fluorophenyl)-6-(4-((6-methoxypyridin-3-yl)oxy)piperidin-1-yl)-5-methylpyrimidine] had an EC50 of 2700 nM. `COc1ccc(OC2CCN(c3nnc(C#N)cc3C)CC2)cn1` [Example 258, 6-(4-((6-Methoxypyridin-3-yl)oxy)piperidin-1-yl)-5-methylpyridazine-3-carbonitrile] came in with an EC50 of 73 nM.

`Cc1cc(C#N)nnc1N1CCC(Oc2cccc(C#N)c2)CC1` [Example 259, 6-(4-(3-cyanophenoxy)piperidin-1-yl)-5-methylpyridazine-3-carbonitrile]: the response was half-maximal at 62 nM (EC50).

Consider `Cc1c(C#N)nc(CO)nc1N1CCC(Oc2ccc3c(c2)C(=O)OC3)CC1` [Example 260, 2-(hydroxymethyl)-5-methyl-6-(4-((3-oxo-1,3-dihydroisobenzofuran-5-yl)oxy)piperidin-1-yl)pyrimidine-4-carbonitrile], for which the EC50 worked out at 2560 nM. This EC50 lies about 41-fold higher than the previous one. For `CCc1ncnc(N2CCC(Oc3cccc(C#N)c3)CC2)c1C` [Example 261, 3-((1-(6-Ethyl-5-methylpyrimidin-4-yl)piperidin-4-yl)oxy)benzonitrile] the value was 425 nM; for `COc1ccc(OC2CCN(c3nnc(-c4nnc(C)o4)cc3C)CC2)cn1` [Example 263, 2-(6-(4-((6-Methoxypyridin-3-yl)oxy)piperidin-1-yl)-5-methylpyridazin-3-yl)-5-methyl-1,3,4-oxadiazole], 251 nM; for `COc1ccc(OC2CCN(c3nnc(-c4noc(C)n4)cc3C)CC2)cn1` [Example 264, 3-(6-(4-((6-Methoxypyridin-3-yl)oxy)piperidin-1-yl)-5-methylpyridazin-3-yl)-5-methyl-1,2,4-oxadiazole], 399 nM. `COc1ccc(OC2CCN(c3nnc(C(=O)NCc4ccncc4)cc3C(F)F)CC2)cn1` [Example 265, 5-(Difluoromethyl)-6-(4-((6-methoxypyridin-3-yl)oxy)piperidin-1-yl)-N-(pyridin-4-ylmethyl)pyridazine-3-carboxamide] displayed an EC50 of 585 nM.

On to `Cc1cc(C(=O)NCc2ccncc2)c(N)nc1N1CCC(Oc2cccc(C#N)c2)CC1` [Example 266, 2-Amino-6-(4-(3-cyanophenoxy)piperidin-1-yl)-5-methyl-N-(pyridin-4-ylmethyl)nicotinamide], for which the response was half-maximal at 4290 nM (EC50). Compound `COC(=O)c1cc(C)c(N2CCC(Oc3ccc4c(c3)COC4)CC2)nc1Cl` [Example 267, Methyl 2-chloro-6-(4-((1,3-dihydroisobenzofuran-5-yl)oxy)piperidin-1-yl)-5-methylnicotinate] gave an EC50 of 2570 nM.

As usually defined, the EC50 is the midpoint of the concentration-response curve. A higher EC50 goes with a need for much substance.
